Biological target: T1, human CB2R (Homo sapiens, UniProt P34972)
T1 construct: host or cells: CHO cells
Experiment: CB2R mediated modulation of cAMP synthesis
Assay type: cell-based
Conditions: CHO cells expressing human CB2R; concentration at which 50% of the forskolin-stimulated cAMP synthesis was inhibited; 100% defined by 1 uM CP55940; read-out: CB2 EC50
Protocol: B. CB2R Mediated Modulation of Camp Synthesis:
Compounds of the invention were evaluated for their CB2 agonist or inverse agonistic activity in accordance with the following experimental method.
CHO cells expressing human CB2R (Euroscreen) were plated at a density of 5000 cells per well in 384 well plates and incubated overnight at 37° C. After removing the media, the cells were treated with test compounds diluted in stimulation buffer containing 1 mM IBMX, 0.25% BSA and 10 uM Forskolin. The assay was incubated for 30 minutes at 37° C. Cells were lysed and the cAMP concentration was measured using DiscoverX-XS cAMP kit, following the manufacturer's protocol. In this setting, agonists will decrease forskolin induced production of cAMP while inverse agonists will further increase forskolin induced production of cAMP. EC50 of agonists were calculated as follows. The maximal amount of cAMP produced by forskolin compared to the level of cAMP inhibited by 1 uM CP55940 is defined as 100%. The EC50 value of each test compound was determined as the concentration at which 50% of the forskolin-stimulated cAMP synthesis was inhibited. Data was analyzed using a four-parameter logistic model. (Model 205 of XLfit 4.0).

T1 sequence (P34972 whole entry): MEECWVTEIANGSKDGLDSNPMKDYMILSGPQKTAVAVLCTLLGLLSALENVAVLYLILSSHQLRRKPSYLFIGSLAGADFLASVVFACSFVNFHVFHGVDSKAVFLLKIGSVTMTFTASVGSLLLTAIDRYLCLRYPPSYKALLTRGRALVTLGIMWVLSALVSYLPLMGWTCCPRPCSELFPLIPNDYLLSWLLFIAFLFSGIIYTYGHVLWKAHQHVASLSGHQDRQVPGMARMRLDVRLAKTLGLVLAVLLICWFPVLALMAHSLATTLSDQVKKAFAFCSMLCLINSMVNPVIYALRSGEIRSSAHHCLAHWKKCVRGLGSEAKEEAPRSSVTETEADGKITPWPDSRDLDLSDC

Structure (SMILES)	EC50
Cn1nc(C(C)(C)C)cc1-c1coc(C(C)(C)S(=O)(=O)c2ccc(Cl)cc2)n1 [Example 1, 4-(5-tert-butyl-2-methyl-2H-pyrazol-3-yl)-2-[1-(4-chloro-benzenesulfonyl)-1-methyl-ethyl]-oxazole]	0.00092 µM
Cn1nc(C(C)(C)C)cc1-c1coc(C(C)(C)S(=O)(=O)c2ccc(F)cc2)n1 [Example 2, 4-(5-tert-butyl-2-methyl-2H-pyrazol-3-yl)-2-[1-(4-fluoro-benzenesulfonyl)-1-methyl-ethyl]-oxazole]	0.00035 µM
Cn1nc(C(C)(C)C)cc1-c1coc(C(C)(C)S(=O)(=O)c2ccc(Cl)cc2F)n1 [Example 3, 4-(5-tert-butyl-2-methyl-2H-pyrazol-3-yl)-2-[1-(4-chloro-2-fluoro-benzenesulfonyl)-1-methyl-ethyl]-oxazole]	0.0039 µM
Cc1ccc(S(=O)(=O)C(C)(C)c2nc(-c3cc(C(C)(C)C)nn3C)co2)cc1 [Example 4, 4-(5-tert-butyl-2-methyl-2H-pyrazol-3-yl)-2-[1-methyl-1-(toluene-4-sulfonyl)-ethyl]-oxazole]	0.012 µM
Cn1nc(C(C)(C)C)cc1-c1coc(C(C)(C)S(=O)(=O)CC2CCOCC2)n1 [Example 5, 4-(5-tert-butyl-2-methyl-2H-pyrazol-3-yl)-2-[1-methyl-1-(tetrahydro-pyran-4-ylmethanesulfonyl)-ethyl]-oxazole]	0.145 µM
Cn1nc(C(C)(C)C)cc1-c1coc(C(C)(C)S(=O)(=O)C2CCCCC2)n1 [Example 6, 4-(5-tert-butyl-2-methyl-2H-pyrazol-3-yl)-2-(1-cyclohexanesulfonyl-1-methyl-ethyl)-oxazole]	0.371 µM
CC(C)(C)c1cc(-c2coc(C(C)(C)S(=O)(=O)c3ccc(Cl)cc3)n2)no1 [Example 7, 5-tert-butyl-3-{2-[1-(4-chloro-benzenesulfonyl)-1-methyl-ethyl]-oxazol-4-yl}-isoxazole]	0.0009 µM
Cn1nc(C(C)(C)C)cc1-c1cnc(C(C)(C)S(=O)(=O)c2ccc(Cl)cc2)o1 [Example 8, 5-(5-tert-butyl-2-methyl-2H-pyrazol-3-yl)-2-[1-(4-chloro-benzenesulfonyl)-1-methyl-ethyl]-oxazole]	0.022 µM
Cn1nc(C(C)(C)C)cc1-c1cnc(C(C)(C)S(=O)(=O)c2ccc(F)cc2)o1 [Example 9, 5-(5-tert-butyl-2-methyl-2H-pyrazol-3-yl)-2-[1-(4-fluoro-benzenesulfonyl)-1-methyl-ethyl]-oxazole]	0.0058 µM
Cn1nc(C(C)(C)C)cc1-c1nnc(C(C)(C)S(=O)(=O)c2ccc(Cl)cc2)[nH]1 [Example 12, 3-(5-tert-butyl-2-methyl-2H-pyrazol-3-yl)-5-[1-(4-chloro-benzenesulfonyl)-1-methyl-ethyl]-4H-[1,2,4]triazole]	0.012 µM
CC(C)(C)c1cc(-c2nnc(C(C)(C)S(=O)(=O)CC3CCOCC3)[nH]2)on1 [Example 14, 3-(3-tert-butyl-isoxazol-5-yl)-5-[1-methyl-1-(tetrahydro-pyran-4-ylmethanesulfonyl)-ethyl]-4H-[1,2,4]triazole]	0.159 µM
CC(C)(c1nc(C2CCCCC2)no1)S(=O)(=O)c1ccc(C(F)(F)F)cc1 [Example 16, 3-cyclohexyl-5-[1-methyl-1-(4-trifluoromethyl-benzenesulfonyl)-ethyl]-[1,2,4]oxadiazole]	0.012 µM
Cn1nc(C(C)(C)C)cc1-c1nc(C(C)(C)S(=O)(=O)c2ccc(Cl)cc2)no1 [Example 18, 5-(5-tert-butyl-2-methyl-2H-pyrazol-3-yl)-3-[1-(4-chloro-benzenesulfonyl)-1-methyl-ethyl]-[1,2,4]oxadiazole]	0.0027 µM
Cn1nc(C(C)(C)C)cc1-c1nc(C(C)(C)S(=O)(=O)CC2CCOCC2)no1 [Example 19, 5-(5-tert-butyl-2-methyl-2H-pyrazol-3-yl)-3-[1-methyl-1-(tetrahydro-pyran-4-ylmethanesulfonyl)-ethyl]-[1,2,4]oxadiazole]	0.0092 µM
CC(C)(C)c1cc(-c2nnc(C(C)(C)S(=O)(=O)c3ccc(Cl)cc3)o2)on1 [Example 22, 2-(3-tert-butyl-isoxazol-5-yl)-5-[1-(4-chloro-benzenesulfonyl)-1-methyl-ethyl]-[1,3,4]oxadiazole]	0.0053 µM
CC(C)(C)c1cc(-c2nnc(C(C)(C)S(=O)(=O)CC3CCOCC3)o2)on1 [Example 24, 2-(3-tert-butyl-isoxazol-5-yl)-5-[1-methyl-1-(tetrahydro-pyran-4-ylmethanesulfonyl)-ethyl]-[1,3,4]oxadiazole]	0.048 µM
CC(C)(C)c1cc(-c2nnc(C(C)(C)S(=O)(=O)c3ccc(Cl)cc3)o2)no1 [Example 25, 2-(5-tert-butyl-isoxazol-3-yl)-5-[1-(4-chloro-benzenesulfonyl)-1-methyl-ethyl]-[1,3,4]oxadiazole]	0.0069 µM

Structure (SMILES)	EC50
Cn1nc(C(C)(C)C)cc1-c1nnc(C(C)(C)S(=O)(=O)c2ccc(Cl)cc2)o1 [Example 26, 2-(5-tert-butyl-2-methyl-2H-pyrazol-3-yl)-5-[1-(4-chloro-benzenesulfonyl)-1-methyl-ethyl]-[1,3,4]oxadiazole]	0.009 µM
CC(C)(C)c1cc(-c2nnc(C(C)(C)S(=O)(=O)c3ccc(F)cc3)o2)no1 [Example 27, 2-(5-tert-butyl-isoxazol-3-yl)-5-[1-(4-fluoro-benzenesulfonyl)-1-methyl-ethyl]-[1,3,4]oxadiazole]	0.035 µM
Cn1nc(C(C)(C)C)cc1-c1nnc(C(C)(C)S(=O)(=O)c2ccc(F)cc2)o1 [Example 28, 2-(5-tert-butyl-2-methyl-2H-pyrazol-3-yl)-5-[1-(4-fluoro-benzenesulfonyl)-1-methyl-ethyl]-[1,3,4]oxadiazole]	0.016 µM
CC(C)(C)c1cc(-c2nnc(C(C)(C)S(=O)(=O)C3CCOCC3)o2)on1 [Example 29, 2-(3-tert-butyl-isoxazol-5-yl)-5-[1-methyl-1-(tetrahydro-pyran-4-sulfonyl)-ethyl]-[1,3,4]oxadiazole]	0.027 µM
CC(C)(C)c1cc(-c2nnc(C(C)(C)S(=O)(=O)Cc3ccc(F)cc3)o2)on1 [Example 31, 2-(3-tert-butyl-isoxazol-5-yl)-5-[1-(4-fluoro-phenylmethanesulfonyl)-1-methyl-ethyl]-[1,3,4]oxadiazole]	0.162 µM
Cn1nc(C(C)(C)C)cc1-c1nnc(C2(S(=O)(=O)c3ccc(Cl)cc3)CC2)o1 [Example 32, 2-(5-tert-butyl-2-methyl-2H-pyrazol-3-yl)-5-[1-(4-chloro-benzenesulfonyl)-cyclopropyl]-[1,3,4]oxadiazole]	0.0037 µM
CC(C)(C)c1cc(-c2noc(C(C)(C)S(=O)(=O)c3ccc(F)cc3)n2)on1 [Example 34, 3-(3-tert-butyl-isoxazol-5-yl)-5-[1-(4-fluoro-benzenesulfonyl)-1-methyl-ethyl]-[1,2,4]oxadiazole]	0.0018 µM
CC(C)(C)c1cc(-c2noc(C(C)(C)S(=O)(=O)c3ccc(C(F)(F)F)cc3)n2)on1 [Example 35, 3-(3-tert-butyl-isoxazol-5-yl)-5-[1-methyl-1-(4-trifluoromethyl-benzenesulfonyl)-ethyl]-[1,2,4]oxadiazole]	0.0059 µM
CC(C)(C)c1cc(-c2noc(C(C)(C)S(=O)(=O)CC3CCOCC3)n2)on1 [Example 36, 3-(3-tert-butyl-isoxazol-5-yl)-5-[1-methyl-1-(tetrahydro-pyran-4-ylmethanesulfonyl)-ethyl]-[1,2,4]oxadiazole]	0.015 µM
CC(C)(C)c1cc(-c2nc(C(C)(C)S(=O)(=O)c3ccc(F)cc3)no2)on1 [Example 37, 5-(3-tert-butyl-isoxazol-5-yl)-3-[1-(4-fluoro-benzenesulfonyl)-1-methyl-ethyl]-[1,2,4]oxadiazole]	0.001 µM
CC(C)(C)c1cc(-c2nc(C(C)(C)S(=O)(=O)CC3CCOCC3)no2)on1 [Example 38, 5-(3-tert-butyl-isoxazol-5-yl)-3-[1-methyl-1-(tetrahydro-pyran-4-ylmethanesulfonyl)-ethyl]-[1,2,4]oxadiazole]	0.21 µM
CC(C)(C)c1cc(-c2nnc(C(C)(C)S(=O)(=O)c3ccc(F)cc3)s2)on1 [Example 39, 2-(3-tert-butyl-isoxazol-5-yl)-5-[1-(4-fluoro-benzenesulfonyl)-1-methyl-ethyl]-[1,3,4]thiadiazole]	0.0067 µM
CC(C)(C)c1cc(-c2nnc(C(C)(C)S(=O)(=O)c3ccc(F)cc3)s2)no1 [Example 40, 2-(5-tert-butyl-isoxazol-3-yl)-5-[1-(4-fluoro-benzenesulfonyl)-1-methyl-ethyl]-[1,3,4]thiadiazole]	0.017 µM
Cn1nc(C(C)(C)C)cc1-c1nnc(C(C)(C)S(=O)(=O)c2ccc(F)cc2)s1 [Example 41, 2-(5-tert-butyl-2-methyl-2H-pyrazol-3-yl)-5-[1-(4-fluoro-benzenesulfonyl)-1-methyl-ethyl]-[1,3,4]thiadiazole]	0.0025 µM
Cn1nc(C(C)(C)C)cc1-c1nnc(C(C)(C)S(=O)(=O)C2CCOCC2)s1 [Example 42, 2-(5-tert-butyl-2-methyl-2H-pyrazol-3-yl)-5-[1-methyl-1-(tetrahydro-pyran-4-sulfonyl)-ethyl]-[1,3,4]thiadiazole]	0.117 µM
CC(C)(CO)c1cc(-c2nnc(C(C)(C)S(=O)(=O)c3ccc(F)cc3)s2)on1 [Example 43, 2-(5-{5-[1-(4-fluoro-benzenesulfonyl)-1-methyl-ethyl]-[1,3,4]thiadiazol-2-yl}-isoxazol-3-yl)-2-methyl-propan-1-ol]	0.175 µM

Reference: US20120015988A1, “Sulfone Compounds Which Modulate The CB2 Receptor” (BOEHRINGER INGELHEIM INTERNATIONAL GMBH, priority 2008, published 2012)
